Where two headings read alike, the source gives them in different places.
Assays:
Format in all cases: in vivo, mouse
[1] = tested on: leukemia cell line L6565; details: SWI mice; for Number of live animals remaining in the group: 30 mice per group
Description: The survival time of mice after tumor injection and treatment was studied.
(§1) The biological composition comprising 10^8 cells per ml of activated and conditioned yeast cells of the strain Saccharomyces cerevisiae Hansen strain AS2.11 was prepared by the methods described in Section 5.1 and subsections therein.
The animals were prepared in a similar manner as described in Section 6.1.
(§2) The mice injected with tumor cells were kept for 5 days and then were divided into 4 experimental groups of ten mice per group and one control group. The four experimental groups were triplicated (i.e., using a total of 120 mice in the experimental groups). In group 2AY, the mice received 0.3 ml of the biological composition once per day. In group 2NY, the mice received 0.3 ml of the untreated yeast cells once per day. […] In group 2CK1, the mice received 0.3 ml of physiological saline once per day.
(§3) The mice in group CK2 also started receiving saline on the same day as the other four groups. […] The mice were observed over 6 months from the day of tumor inoculation and survival was recorded. The number of tumor cells in the mice were determined by standard techniques.

[2] = tested on: leukemia cell line T739; details: T739 mice; for Number of live animals remaining in the group: 30 mice per group
Description: The survival time of the […] after tumor injection and treatment was studied.
as §1
The animals were prepared in a similar manner as described in Section 8.1.
as §2, with “immediately” for “kept for 5 days and then were”
as §3

[3] = tested on: leukemia cell line L6565; details: SWI mice
Description: as §1
(§4) The mice injected with tumor cells were immediately divided into 4 experimental groups of ten mice per group and one control group. The four experimental groups were triplicated (i.e., using a total of 120 mice in the experimental groups).
(§5) The mice in group CK2 also started receiving saline on the same day as the other four groups. […] The number of tumor cells in the mice were determined by standard techniques.

[4] = tested on: leukemia cell line T739; details: T739 mice
Description: as §1, §4, §5

[5] = 1 month after cessation of treatment
[6] = 2 months after cessation of treatment
[7] = 3 months after cessation of treatment
[8] = 4 months after cessation of treatment
[9] = 5 months after cessation of treatment
[10] = 6 months after cessation of treatment

O=P1(N(CCCl)CCCl)NCCCO1 (centres unmarked) [CTX, cyclophosphamide]
Number of live animals remaining in the group ([1]; 0 month after cessation of 21 days of treatment): 28
Number of live animals remaining in the group [1, 5]: 19
Number of live animals remaining in the group [1, 6]: 3
Number of live animals remaining in the group [1, 7]: 0
Number of live animals remaining in the group [1, 8]: 0
Number of live animals remaining in the group [1, 9]: 0
Number of live animals remaining in the group [1, 10]: 0
survival outcome during the experiment ([1]; observed over 6 months): died during the experiment
Number of live animals remaining in the group ([2]; 0 month after cessation of treatment): 28
Number of live animals remaining in the group [2, 5]: 19
Number of live animals remaining in the group [2, 6]: 3
Number of live animals remaining in the group [2, 7]: 0
Number of live animals remaining in the group [2, 8]: 0
Number of live animals remaining in the group [2, 9]: 0
Number of live animals remaining in the group [2, 10]: 0
survival outcome during the experiment ([2]; observed over 6 months): died during the experiment
development of leukemia ([3]; L6565, 21 days of treatment): developed leukemia
number of leukemia cells and standard deviation ([3]; L6565 cells s.c., 21 consecutive days of treatment, sacrificed on 22nd day (or measured at time of death)): 933 ± 241 cells/ml
number of leukemia cells and standard deviation ([4]; T739 cells s.c., 21 consecutive days of treatment, sacrificed on 22nd day (or measured at time of death)): 957 ± 132 cells/ml
development of leukemia ([4]; 21 days of treatment): developed leukemia

Reference: patent US20040253252A1, “Biological compositions and methods for treatment of leukemia” (priority 2003, published 2004)
